Structures are written as SMILES. Several values for one entry are separate records, joined by “and”; a condition that tells them apart may be missing. Equal values may be shown once.

What all share (type): cell-based, human
In assay [1] the test system is RAB3B, member RAS oncogene family protein expression in ES2 cells. Briefly: Microarray gene expression, Table 17. As to the method:
Y/D is the ratio (in folds) of gene expression in cells treated with compound Y as compared with those of the no drug control (D),
YM/D is the ratio of gene expression in cells treated with compound YM (ACH-Y, Y without sugar moiety) compared with those of the no drug control (D)
Cell culture and drug-treatment.: ES2 cells were seeded in a T-25 flask with 4.5 million cells per flask for 24 hours. Cell culture was replaced with fresh medium with xanifolia-Y (Y) or DMSO no drug control (D) for 24 hours. Cells were then harvested for RNA isolation. Three experiments were done.
RNA extraction, labeling, hybridization, and data analysis. RNA was extracted from tumor cells using the Qiagen RNeasy Kit. RNA quality and quantity was checked by the Agilent BioAnalyzer and the NanoDrop® ND-1000 spectrophotometer respectively before further manipulation. The first and second cDNA strands were synthesized from 20 ng of total RNA using the Affymetrix T7 oligo(dT) primer protocol and kit for the two-cycle amplification. To produce amplified biotin-labeled-cRNA, the cDNA was […] by in vitro transcription using the MegaScript kit from Ambion. 15.0 μg of the labeled cRNA was fragmented and re-checked for concentration using the NanoDrop® ND-1000 spectrophotometer. A hybridization cocktail containing Affymetrix spike-in controls and fragmented labeled cRNA was loaded onto the Human U133 Plus 2.0 GeneChip® oligonucleotide array. The Affymetrix array (Affymetrix, Inc. Santa Clara, Calif.) is comprised of over 1,300,000 unique oligonucleotide features that represent greater than 38,500 well-substantiated human genes. The array was hybridized for 16 hours at 45° C. with rotation at 60 rpm then washed and stained with a strepavidin, R-phycoerythrin conjugate stain on the Affymetrix Fluidicis Station 450. Signal amplification was done using biotinylated antistreptavidin. The arrays were scanned using the GeneChip® 3000 confocal laser scanner with autoloader. The images were analyzed and quality control metrics recorded using Affymetrix GCOS software version 1.4. Lastly, the expression value for each gene was calculated using dChip PM-only model based or Plier algorithm.
Pairwise comparisons were made as follows: Treated vs. Control (Y vs. D), Modified Drug vs Control (YM/ACY-H vs. D) and Treated vs. Modified Drug (Y vs. YM/ACH-Y) Cel files analyzed using the Bioconductor package of R Statistical programming. Limma analysis generated a reasonable number of changing genes between the samples.
The raw data in the .CEL files were normalized by the GCRMA method (robust multi-array analysis). It is implemented in Bioconductor (http://www.bioconductor.org/). The raw signal intensity data were normalized, background corrected and summarized based on certain statistical models, and an expression value, in log 2-scale, is obtained per chip per probe set. Then the null hypothesis was tested that there's no significant changes in gene expression between the treatment pairs. This was done by LIMMA and is also implemented in Bioconductor. It uses empirical Bayes method to estimate the variance in gene expression. One comparison was made, namely, High Grade vs. Low Grade. The raw p-values were adjusted by the Benjamnin-Hochberg method for false discovery rate (FDR) control. All data sets contained a significant number of genes with a p-value less than 0.05, which is that the probability that a gene is NOT differential expressed (false positive) is 1:20.

In assay [2] the test system is Fibronectin secretion from ES2 cells. Briefly: Fibronectin secretion (Western blot), ES2 cells.
Assay [3] deals with Fibronectin secretion from lung carcinoma cells (H460). Briefly: Fibronectin secretion (Western blot), H460 cells. As to conditions: for % inhibition of Fibronectin secretion: H460 cells.
Setting [4] is: ES2 cells, 10 ug/ml, listed as xanifolia-Y.

`C/C=C(/C)C(=O)O[C@H]1[C@H](OC(=O)/C(C)=C\C)[C@@]2(CO)C(CC1(C)C)C1=CCC3[C@@]4(C)CC[C@H](O)C(C)(C)C4CC[C@@]3(C)[C@]1(C)[C@@H](O)[C@H]2O` (some centres unmarked) [ACH-Y]: the “RAB3B, member RAS oncogene family, gene expression ratio to no drug control (D)” value in assay [1] (probe 205924_at) is on record as −1.8 folds; in assay [1] (probe 205925_s_at), −1.2 folds; in assay [1] (probe 227123_at) it was −1.2 folds; in assay [1] (probe 242629_at), −1.8 folds. The “% inhibition of Fibronectin secretion” value in assay [2] (ES2 cells, 10 ug/ml) is listed as “less (or not observed)”. Besides, the “Fibronectin secreted / FN band intensity, % of DMSO control” value in assay [2] (ES2 cells, 20 ug/ml) is reported as 53%-75%. For the same compound, the inhibition at 20 µg/mL was 48% in assay [2] (Homo sapiens, ES-2, ES2 cells, 20 ug/ml) and 28% in assay [3] (Homo sapiens, NCI-H460, H460 cells, 20 ug/ml).
On to `C/C=C(/C)C(=O)O[C@H]1[C@H](OC(=O)/C(C)=C\C)[C@@]2(CO)C(CC1(C)C)C1=CCC3[C@@]4(C)CC[C@H](O[C@@H]5OC(C(=O)O)[C@@H](O)C(O[C@@H]6O[C@@H](CO)C(O)C6O)C5O[C@@H]5OC(CO)[C@H](O)C(O)C5O)C(C)(C)C4CC[C@@]3(C)[C@]1(C)[C@@H](O)[C@H]2O` (stereo partly drawn) [Xanifolia-Y, 3-O-[β-D-galactopyranosyl (1→2)]-α-L-arabinofuranosy (1→3)-β-D-glucuronopyranosyl-21,22-O-diangeloyl-3β, 15α, 16α, 21β, 22α, 28-hexahydroxyolean-12-ene], for which the “RAB3B, member RAS oncogene family, gene expression ratio to no drug control (D)” value is recorded as −1.7 folds in assay [1] (probe 205924_at), −1.2 folds in assay [1] (probe 205925_s_at), −1.6 folds in assay [1] (probe 227123_at) and −3.5 folds in assay [1] (probe 242629_at). Further, the “secretion of Fibronectin to medium over time” value in assay [2] (ES2 cells, 10 ug/ml, 1 to 24 hour) is on record as “no or only minimally secretion of Fibronectin”. In addition, the “reduction of Fibronectin secretion” value was 40% in assay [2] (ES2 cells, 10 ug/ml, 18 hours); 31% and 30-40% and 38% and 46% in assay [2] (ES2 cells, 10 ug/ml, 24 hours, listed as Y); 46% in assay [2] (ES2 cells, 10 ug/ml, 24 hours, listed as xanifolia-Y). Moreover, the “reduction of FN secretion at 24 hours after removal of drug” value in assay [2] (ES2 cells, 10 ug/ml, drug removed at 4 or 8 hours) is “over 50%”. The “Fibronectin secreted / FN band intensity, % of DMSO control” value in assay [2] (ES2 cells, 10 ug/ml, listed as Y) was 62% and 51% and 54%; in assay [2] (setting [4]), 54%. The “% inhibition of Fibronectin secretion” value was 47% in assay [2] (ES2 cells, 10 ug/ml, listed as Y3); 49% in assay [2] (setting [4]); 20-60% in assay [3] (20 ug/ml); “over 60%” in assay [3] (20 ug/ml, listed as Y). Further, the “earliest time at which inhibition of Fibronectin was observed” value in assay [2] (ES2 cells, after drug-treatment) came out at 8 h. Further, the “change in Fibronectin secretion” value in assay [2] (ES2 cells, first 7 hours of treatment) was “not noticeable”. The inhibition at 10 µg/mL in assay [3] (Homo sapiens, NCI-H460, H460 cells, 10 ug/ml) is 19%.

For the origin of these results see US10213451B2, “Methods and compounds for modulating the secretion or expression of adhesion proteins or angiopoietins of cells” (PACIFIC ARROW LIMITED, priority 2004, dated 2019).
